These results are taken from ChEMBL document CHEMBL1138341, “(S)-N-{3-[1-cyclopropyl-1-(2,4-difluoro-phenyl)-ethyl]-1H-indol-7-yl}-methanesulfonamide: a potent, nonsteroidal, functional antagonist of the mineralocorticoid receptor” (J Med Chem, 2007).

The source made the active and inactive calls. No cut-off for these calls is given here.

The subject of experiment [1] is Rattus norvegicus. The experiment is described as follows: Reduction in aldosterone-induced hypertension in salt-loaded uni-nephrectomized Sprague-Dawley rat at 3 mg/kg, po qd after 14 days. It counts as functional, organism-based. The arrangement: dose 3 mg/kg.
In another experiment the target is T1, Androgen receptor (Homo sapiens, UniProt P10275).
T1 sequence (P10275 whole entry): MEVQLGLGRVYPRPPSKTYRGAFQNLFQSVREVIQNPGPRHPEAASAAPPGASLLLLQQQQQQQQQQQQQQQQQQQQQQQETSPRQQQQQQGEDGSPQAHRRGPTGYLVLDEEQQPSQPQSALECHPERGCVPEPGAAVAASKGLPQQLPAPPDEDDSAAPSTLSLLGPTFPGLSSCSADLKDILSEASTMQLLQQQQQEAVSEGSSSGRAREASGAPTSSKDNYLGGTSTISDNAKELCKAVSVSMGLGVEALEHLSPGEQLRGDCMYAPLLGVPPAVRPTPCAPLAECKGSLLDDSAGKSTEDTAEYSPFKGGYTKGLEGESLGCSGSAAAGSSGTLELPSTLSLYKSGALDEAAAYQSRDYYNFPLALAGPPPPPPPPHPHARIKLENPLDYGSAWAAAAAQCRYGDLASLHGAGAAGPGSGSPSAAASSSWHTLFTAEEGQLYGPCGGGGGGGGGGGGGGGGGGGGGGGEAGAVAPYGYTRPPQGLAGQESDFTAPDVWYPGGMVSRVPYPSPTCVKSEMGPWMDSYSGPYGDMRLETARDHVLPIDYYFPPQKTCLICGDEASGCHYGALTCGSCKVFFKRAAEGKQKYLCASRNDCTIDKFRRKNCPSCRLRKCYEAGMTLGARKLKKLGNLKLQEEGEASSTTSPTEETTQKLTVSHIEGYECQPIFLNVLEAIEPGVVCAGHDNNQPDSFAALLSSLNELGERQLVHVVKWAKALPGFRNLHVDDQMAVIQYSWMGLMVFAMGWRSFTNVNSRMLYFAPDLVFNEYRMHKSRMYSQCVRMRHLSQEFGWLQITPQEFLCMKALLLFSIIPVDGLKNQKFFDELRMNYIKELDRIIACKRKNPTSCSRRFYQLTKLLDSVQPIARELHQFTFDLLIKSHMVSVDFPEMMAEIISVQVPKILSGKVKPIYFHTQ
The experiment is described as follows: Binding affinity to human androgen receptor.

The target in the next experiment is T2, Progesterone receptor (Homo sapiens, UniProt P06401).
T2 sequence (P06401 whole entry): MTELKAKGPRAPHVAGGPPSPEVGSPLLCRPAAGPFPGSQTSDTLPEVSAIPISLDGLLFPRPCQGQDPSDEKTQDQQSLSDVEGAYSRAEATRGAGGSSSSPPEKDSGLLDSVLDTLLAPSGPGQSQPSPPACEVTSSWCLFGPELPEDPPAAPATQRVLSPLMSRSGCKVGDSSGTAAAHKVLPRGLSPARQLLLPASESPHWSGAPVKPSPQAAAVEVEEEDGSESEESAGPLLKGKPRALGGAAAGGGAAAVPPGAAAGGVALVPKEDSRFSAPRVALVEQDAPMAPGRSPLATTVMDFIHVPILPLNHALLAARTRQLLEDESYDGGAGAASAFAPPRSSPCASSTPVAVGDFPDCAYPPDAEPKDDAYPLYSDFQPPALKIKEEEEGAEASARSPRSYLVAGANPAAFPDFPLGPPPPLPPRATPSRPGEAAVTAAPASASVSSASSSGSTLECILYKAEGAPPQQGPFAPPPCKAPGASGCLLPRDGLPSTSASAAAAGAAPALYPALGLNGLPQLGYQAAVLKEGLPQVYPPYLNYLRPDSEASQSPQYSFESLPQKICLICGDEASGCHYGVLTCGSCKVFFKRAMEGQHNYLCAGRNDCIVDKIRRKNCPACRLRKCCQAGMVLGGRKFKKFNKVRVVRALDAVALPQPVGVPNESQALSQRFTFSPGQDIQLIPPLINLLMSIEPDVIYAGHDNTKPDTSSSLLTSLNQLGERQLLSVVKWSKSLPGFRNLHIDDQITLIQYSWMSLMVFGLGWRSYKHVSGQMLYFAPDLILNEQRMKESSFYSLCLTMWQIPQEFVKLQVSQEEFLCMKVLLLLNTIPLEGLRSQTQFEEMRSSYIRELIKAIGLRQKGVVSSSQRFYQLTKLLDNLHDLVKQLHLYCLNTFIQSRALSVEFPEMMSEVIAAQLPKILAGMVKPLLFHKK
The experiment in a line: Binding affinity to human progesterone receptor.

Another experiment deals with T3, Estrogen receptor (Homo sapiens, UniProt P03372).
T3 sequence (P03372 whole entry): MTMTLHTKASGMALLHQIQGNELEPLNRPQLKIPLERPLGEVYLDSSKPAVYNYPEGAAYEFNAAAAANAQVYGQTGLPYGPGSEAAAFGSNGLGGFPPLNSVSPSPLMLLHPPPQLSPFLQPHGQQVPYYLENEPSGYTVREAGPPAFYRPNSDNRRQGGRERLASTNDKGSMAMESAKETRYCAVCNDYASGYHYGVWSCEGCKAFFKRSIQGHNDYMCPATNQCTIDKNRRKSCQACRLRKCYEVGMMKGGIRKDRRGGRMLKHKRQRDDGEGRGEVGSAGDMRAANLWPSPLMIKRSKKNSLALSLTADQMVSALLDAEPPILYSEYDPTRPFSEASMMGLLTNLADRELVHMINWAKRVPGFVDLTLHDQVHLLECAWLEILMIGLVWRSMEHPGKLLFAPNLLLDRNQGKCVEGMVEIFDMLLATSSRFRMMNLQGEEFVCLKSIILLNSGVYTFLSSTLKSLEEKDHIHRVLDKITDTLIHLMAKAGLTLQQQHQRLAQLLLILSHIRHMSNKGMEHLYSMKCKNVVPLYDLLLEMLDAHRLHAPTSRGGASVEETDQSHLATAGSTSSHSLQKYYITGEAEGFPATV
The experiment in a line: Binding affinity to human estrogen receptor.

Another experiment deals with T4, Glucocorticoid receptor (Homo sapiens, UniProt P04150).
T4 sequence (P04150 whole entry): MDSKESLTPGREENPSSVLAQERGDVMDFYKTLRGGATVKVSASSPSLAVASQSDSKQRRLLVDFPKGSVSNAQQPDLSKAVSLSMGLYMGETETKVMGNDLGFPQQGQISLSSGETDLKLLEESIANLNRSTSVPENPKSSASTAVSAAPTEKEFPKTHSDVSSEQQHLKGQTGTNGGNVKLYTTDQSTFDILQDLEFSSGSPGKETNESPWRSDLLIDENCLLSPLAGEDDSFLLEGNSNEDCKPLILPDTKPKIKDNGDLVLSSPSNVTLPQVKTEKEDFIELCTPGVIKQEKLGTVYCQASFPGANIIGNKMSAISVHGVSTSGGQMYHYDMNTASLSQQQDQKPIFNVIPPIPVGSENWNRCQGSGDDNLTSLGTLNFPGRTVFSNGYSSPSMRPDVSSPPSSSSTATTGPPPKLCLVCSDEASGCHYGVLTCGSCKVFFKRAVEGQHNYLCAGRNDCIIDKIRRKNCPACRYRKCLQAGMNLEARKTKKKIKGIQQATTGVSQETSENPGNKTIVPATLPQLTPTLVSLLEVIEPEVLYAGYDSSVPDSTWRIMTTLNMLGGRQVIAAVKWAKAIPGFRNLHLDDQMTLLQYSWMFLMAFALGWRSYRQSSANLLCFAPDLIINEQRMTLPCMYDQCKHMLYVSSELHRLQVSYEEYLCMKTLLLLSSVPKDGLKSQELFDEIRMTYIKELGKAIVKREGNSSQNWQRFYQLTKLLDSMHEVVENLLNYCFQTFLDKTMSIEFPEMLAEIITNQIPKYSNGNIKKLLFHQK
The experiment in a line: Binding affinity to human glucocorticoid receptor.

The target in experiment [2] is T5, Mineralocorticoid receptor (Homo sapiens) (UniProt P08235).
T5 sequence (whole entry): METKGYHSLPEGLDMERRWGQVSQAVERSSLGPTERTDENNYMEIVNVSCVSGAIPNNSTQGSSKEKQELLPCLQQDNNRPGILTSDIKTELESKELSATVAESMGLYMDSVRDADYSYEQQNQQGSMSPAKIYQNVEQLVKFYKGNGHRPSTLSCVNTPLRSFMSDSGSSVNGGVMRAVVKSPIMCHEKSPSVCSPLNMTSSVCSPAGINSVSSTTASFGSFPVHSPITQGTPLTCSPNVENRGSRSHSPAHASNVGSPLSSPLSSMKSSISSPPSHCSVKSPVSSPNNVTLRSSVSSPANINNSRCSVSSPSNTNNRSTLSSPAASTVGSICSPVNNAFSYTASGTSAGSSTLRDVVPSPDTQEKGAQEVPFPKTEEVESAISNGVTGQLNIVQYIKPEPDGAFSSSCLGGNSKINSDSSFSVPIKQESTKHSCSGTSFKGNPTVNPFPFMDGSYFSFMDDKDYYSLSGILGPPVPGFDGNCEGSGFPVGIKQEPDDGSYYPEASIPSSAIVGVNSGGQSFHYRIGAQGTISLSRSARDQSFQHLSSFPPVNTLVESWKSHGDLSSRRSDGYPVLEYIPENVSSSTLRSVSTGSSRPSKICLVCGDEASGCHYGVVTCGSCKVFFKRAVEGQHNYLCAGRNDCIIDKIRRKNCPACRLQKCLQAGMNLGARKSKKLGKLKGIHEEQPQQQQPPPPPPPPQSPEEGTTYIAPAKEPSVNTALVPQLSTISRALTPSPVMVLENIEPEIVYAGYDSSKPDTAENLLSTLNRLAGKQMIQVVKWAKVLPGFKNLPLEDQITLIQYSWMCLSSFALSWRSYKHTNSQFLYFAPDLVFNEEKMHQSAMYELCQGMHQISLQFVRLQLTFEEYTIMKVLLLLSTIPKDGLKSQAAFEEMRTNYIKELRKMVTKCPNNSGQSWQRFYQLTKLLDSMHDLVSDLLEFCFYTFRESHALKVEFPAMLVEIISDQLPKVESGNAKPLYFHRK
The experiment in a line: Antagonist activity at human mineralocorticoid receptor expressed in COS7 cells after 24 hrs by luciferase reporter gene assay. It counts as functional, cell-based. The following applies: COS-7. For orientation: Reporter assays use an easily measured gene product as a stand-in for the process of interest.

Experiment [3] deals with Rattus norvegicus. The experiment in a line: Reduction in aldosterone-induced hypertension in salt-loaded uni-nephrectomized Sprague-Dawley rat at 30 mg/kg, po qd after 14 days. The arrangement: dose 30 mg/kg. It counts as functional, organism-based.
Experiment [4] deals with T6, Mineralocorticoid receptor (Homo sapiens, UniProt P08235).
T6 sequence (P08235 whole entry): T5 sequence (whole entry)
The experiment in a line: Binding affinity to human mineralocorticoid receptor.

Usually Ki stands for a dissociation constant, usually derived from enzyme kinetics or from competition with a known ligand. `C[C@@](c1ccc(F)cc1F)(c1c[nH]c2c(NS(C)(=O)=O)cccc12)C1CC1`: the outcome with Rattus norvegicus [1] was Active. In addition, the Ki at Androgen receptor is 700 nM; on Progesterone receptor, 163 nM; on Estrogen receptor, > 1100 nM.

In the case of `CC(=O)S[C@@H]1CC2=CC(=O)CC[C@]2(C)[C@H]2CC[C@@]3(C)[C@@H](CC[C@@]34CCC(=O)O4)[C@H]12` [SPIRONOLACTONE], the Ki on Glucocorticoid receptor is 32.6 nM; on Estrogen receptor it was > 1100 nM.

As usually defined, the Kb is the affinity of an antagonist, worked out from how it opposes an agonist. In turn, `COC(=O)[C@@H]1CC2=CC(=O)CC[C@]2(C)C2C1C1CC[C@@]3(CCC(=O)O3)[C@@]1(C)[C@H]1O[C@@H]21` (stereo partly specified) [EPIERENONE] came in with a Kb in experiment [2] of 189 nM. The outcome with Rattus norvegicus [3] was Active. The Ki in experiment [4] was 124 nM; on Glucocorticoid receptor, 1760 nM; on Androgen receptor, 8890 nM; on Progesterone receptor, 29400 nM; at Estrogen receptor, > 1100 nM.

Take `C[C@@](c1ccc(F)cc1)(c1c[nH]c2c(NS(C)(=O)=O)cccc12)C1CC1`: the antagonist dissociation constant (Kb) in experiment [2] was found to be 38.2 nM. Also, in the experiment on Rattus norvegicus [1], the result was inactive. Moreover, the Ki in experiment [4] was 1.56 nM; on Glucocorticoid receptor it was 167 nM; on Androgen receptor, 849 nM; on Progesterone receptor, 137 nM; at Estrogen receptor, > 1100 nM.

As to `C[C@](c1ccc(F)cc1)(c1c[nH]c2c(NS(C)(=O)=O)cccc12)C1CC1`, the Kb in experiment [2] was 115 nM. Moreover, the Ki in experiment [4] is 7.5 nM; at Glucocorticoid receptor it was 387 nM; on Androgen receptor it was 590 nM; on Progesterone receptor it was 313 nM; at Estrogen receptor, > 1100 nM.
